Source: ChEMBL document CHEMBL5360573, “Discovery of novel tryptamine derivatives as GluN2B subunit-containing NMDA receptor antagonists via pharmacophore-merging strategy with orally available therapeutic effect of cerebral ischemia” (Eur J Med Chem, 2023)
Calls of active or inactive are those of the source. The calls are words filed in the database; no cut-off is given here.

System: not listed separately
Experiment: Metabolic stability in human plasma assessed as half life at 2 uM by LC-MS/MS analysis
Assay type: ADME, cell-free
Settings: not given

Compound | half-life at 2 µM [min]
CC(C(O)c1ccc(O)cc1)N1CCC(Cc2ccccc2)CC1 (stereo not drawn) [IFENPRODIL] | > 289
O=C(/C=C/c1ccc(O)cc1)NCCc1cn(Cc2cccc(Br)c2)c2ccccc12 | > 289

System: not listed separately
Experiment: MRT (0 to infinity) in C57 mouse at 10 mg/kg, po measured for 20 mins by LC-MS/MS analysis
Assay type: ADME, organism-based
Settings: in vivo

Compound | MRT inf [min]
O=C(/C=C/c1ccc(O)cc1)NCCc1cn(Cc2cccc(Br)c2)c2ccccc12 | 85.2

System: not listed separately
Experiment: Clearance in C57 mouse at 1 mg/kg, iv measured for 20 mins by LC-MS/MS analysis
Assay type: ADME, organism-based
Settings: in vivo

Compound | clearance [L/h/kg]
O=C(/C=C/c1ccc(O)cc1)NCCc1cn(Cc2cccc(Br)c2)c2ccccc12 | 1.23

System: not listed separately
Experiment: AUC (0 to infinity) in C57 mouse at 10 mg/kg, po measured for 20 mins by LC-MS/MS analysis
Assay type: ADME, organism-based
Parameters: dose 10 mg/kg, time 20 min, route po
Settings: in vivo

Compound | AUC(0-inf) [µg·h/mL]
O=C(/C=C/c1ccc(O)cc1)NCCc1cn(Cc2cccc(Br)c2)c2ccccc12 | 0.269

Molecular target: Glutamate receptor ionotropic, NMDA 2B (Homo sapiens) (UniProt Q13224)
Sequence (Q13224 27-1484 limits assumed): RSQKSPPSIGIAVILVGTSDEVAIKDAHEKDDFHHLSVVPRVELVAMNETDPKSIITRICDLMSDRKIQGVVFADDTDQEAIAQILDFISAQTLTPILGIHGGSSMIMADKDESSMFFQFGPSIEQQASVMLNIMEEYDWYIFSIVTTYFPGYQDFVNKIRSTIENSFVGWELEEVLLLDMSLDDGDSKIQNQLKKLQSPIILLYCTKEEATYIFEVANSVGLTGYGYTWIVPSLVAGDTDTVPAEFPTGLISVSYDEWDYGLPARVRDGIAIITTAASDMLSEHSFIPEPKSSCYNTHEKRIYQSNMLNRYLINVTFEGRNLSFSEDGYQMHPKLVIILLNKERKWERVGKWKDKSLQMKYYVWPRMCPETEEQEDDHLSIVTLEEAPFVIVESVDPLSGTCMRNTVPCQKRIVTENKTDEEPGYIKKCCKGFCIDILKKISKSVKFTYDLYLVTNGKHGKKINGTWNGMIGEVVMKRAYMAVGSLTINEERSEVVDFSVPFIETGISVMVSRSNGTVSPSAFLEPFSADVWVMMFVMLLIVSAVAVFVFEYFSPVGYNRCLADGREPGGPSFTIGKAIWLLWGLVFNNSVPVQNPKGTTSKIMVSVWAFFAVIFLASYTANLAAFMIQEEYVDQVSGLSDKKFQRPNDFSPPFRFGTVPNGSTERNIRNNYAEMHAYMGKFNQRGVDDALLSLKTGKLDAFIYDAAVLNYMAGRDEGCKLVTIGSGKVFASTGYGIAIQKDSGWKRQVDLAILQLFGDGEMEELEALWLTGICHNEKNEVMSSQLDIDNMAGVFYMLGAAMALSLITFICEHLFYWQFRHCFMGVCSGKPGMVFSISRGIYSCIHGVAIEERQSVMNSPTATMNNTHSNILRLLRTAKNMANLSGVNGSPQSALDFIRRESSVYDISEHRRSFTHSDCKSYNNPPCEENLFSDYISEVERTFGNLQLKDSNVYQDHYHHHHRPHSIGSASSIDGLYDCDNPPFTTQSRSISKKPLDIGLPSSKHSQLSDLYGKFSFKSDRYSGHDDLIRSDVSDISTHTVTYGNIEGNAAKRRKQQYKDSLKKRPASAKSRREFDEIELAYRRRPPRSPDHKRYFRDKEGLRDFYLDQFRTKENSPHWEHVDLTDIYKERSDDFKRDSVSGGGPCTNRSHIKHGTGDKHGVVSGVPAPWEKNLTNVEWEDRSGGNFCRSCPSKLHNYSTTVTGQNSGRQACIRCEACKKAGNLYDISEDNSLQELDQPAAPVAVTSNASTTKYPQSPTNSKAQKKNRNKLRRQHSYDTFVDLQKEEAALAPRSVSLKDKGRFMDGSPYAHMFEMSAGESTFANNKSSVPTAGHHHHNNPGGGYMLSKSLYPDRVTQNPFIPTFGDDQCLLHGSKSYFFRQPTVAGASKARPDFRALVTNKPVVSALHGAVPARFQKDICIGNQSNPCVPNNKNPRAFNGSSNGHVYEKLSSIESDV
Experiment: Antagonist activity against GluN2B NMDAR in human SH-SY5Y cells assessed as reduction in NMDA-induced intracellular influx at 5 uM incubated for 6 hrs followed by replacement of fresh medium without compounds and subsequent NMDA treatment by Fluo-4AM dye based calcium mobilization assay
Assay type: cell-based
Settings: filed as antagonist

Compound | Activity
CC(C(O)c1ccc(O)cc1)N1CCC(Cc2ccccc2)CC1 (stereo not drawn) [IFENPRODIL] | Active
O=C(/C=C/c1ccc(O)cc1)NCCc1cn(Cc2cccc(Br)c2)c2ccccc12 | Active

System: SH-SY5Y
Experiment: Neuroprotective activity against NMDA-induced cell injury in human SH-SY5Y cells assessed as cell viability at 5 uM incubated for 6 hrs followed by NMDA treatment for 0.5 hrs and subsequent replacement of fresh medium without compounds by MTT assay relative to control
Assay type: functional
Settings: time 6.5 hrs, read-out: Activity

Compound | viability at 5 µM [%]
O=C(/C=C/c1ccc(O)cc1)NCCc1cn(CCCc2ccccc2)c2ccccc12 | 12.5
O=C(/C=C/c1ccccc1)NCCc1cn(Cc2ccccc2)c2ccccc12 | 24.7
O=C(/C=C/c1ccc(O)cc1)NCCc1cn(CCc2ccccc2)c2ccccc12 | 8
O=C(/C=C/c1ccc(O)c(O)c1)NCCc1cn(Cc2ccccc2)c2ccccc12 | 48.2
CC(C(O)c1ccc(O)cc1)N1CCC(Cc2ccccc2)CC1 (stereo not drawn) [IFENPRODIL] | 41
O=C(/C=C/c1ccc(O)cc1)NCCc1cn(Cc2cccc(Br)c2)c2ccccc12 | 55.8

System: not listed separately
Experiment: MRT (0 to t) in C57 mouse at 1 mg/kg, iv measured for 20 mins by LC-MS/MS analysis
Assay type: ADME, organism-based
Settings: in vivo

Compound | MRT last at 20 min [min]
O=C(/C=C/c1ccc(O)cc1)NCCc1cn(Cc2cccc(Br)c2)c2ccccc12 | 26.4

System: not listed separately
Experiment: Cmax in C57 mouse at 10 mg/kg, po measured for 20 mins by LC-MS/MS analysis
Assay type: ADME, organism-based
Parameters: dose 10 mg/kg, time 20 min, route po
Settings: in vivo

Compound | Cmax [µg/mL]
O=C(/C=C/c1ccc(O)cc1)NCCc1cn(Cc2cccc(Br)c2)c2ccccc12 | 0.182

System: not listed separately
Experiment: Metabolic stability in human plasma assessed as compound remaining at 2 uM measured after 30 mins by LC-MS/MS analysis
Assay type: ADME, cell-free
Settings: read-out: Stability

Compound | remaining at 0.5 h, 2 µM [%]
CC(C(O)c1ccc(O)cc1)N1CCC(Cc2ccccc2)CC1 (stereo not drawn) [IFENPRODIL] | 89.6
O=C(/C=C/c1ccc(O)cc1)NCCc1cn(Cc2cccc(Br)c2)c2ccccc12 | 98.8

System: not listed separately
Experiment: AUC (0 to t) in C57 mouse at 1 mg/kg, iv measured for 20 mins by LC-MS/MS analysis
Assay type: ADME, organism-based
Parameters: time 20 min, dose 1 mg/kg, route iv
Settings: in vivo

Compound | AUC(0-t) at 20 min [µg·h/mL]
O=C(/C=C/c1ccc(O)cc1)NCCc1cn(Cc2cccc(Br)c2)c2ccccc12 | 0.86

System: Mus musculus
Experiment: Neuroprotective activity against ICV-ET1-induced cerebral ischemia injury C57BL/6J mouse model assessed as increase in preferential index at 20 to 80 mg/kg, po administered daily measured on day 11 to 13 by novel object recognition test
Assay type: functional, organism-based
Settings: dose 20-80 mg/kg, time 11-13 day

Compound | Activity
O=C(/C=C/c1ccc(O)cc1)NCCc1cn(Cc2cccc(Br)c2)c2ccccc12 | Active

Molecular target: Glutamate receptor ionotropic, NMDA 2B (Homo sapiens) (UniProt Q13224)
Experiment: Antagonist activity against GluN2B NMDAR in human SH-SY5Y cells assessed as increase in NMDA-induced downregulation of phosphorylated ERK1/2 at 0.05 to 5 uM incubated for 6 hrs followed by NMDA treatment for 0.5 hrs and subsequent replacement of fresh medium without compounds by Western blot analysis
Assay type: cell-based
Settings: filed as antagonist, dose 0.05-5 µM, time 6.5 hrs

Compound | Activity
O=C(/C=C/c1ccc(O)cc1)NCCc1cn(Cc2cccc(Br)c2)c2ccccc12 | Active

System: not listed separately
Experiment: Cmax in C57 mouse at 1 mg/kg, iv measured for 20 mins by LC-MS/MS analysis
Assay type: ADME, organism-based
Parameters: dose 1 mg/kg, time 20 min, route iv
Settings: in vivo

Compound | Cmax [µg/mL]
O=C(/C=C/c1ccc(O)cc1)NCCc1cn(Cc2cccc(Br)c2)c2ccccc12 | 1.91

System: not listed separately
Experiment: Metabolic stability in human plasma assessed as compound remaining at 2 uM measured after 10 mins by LC-MS/MS analysis
Assay type: ADME, cell-free
Settings: read-out: Stability

Compound | remaining at 10 min, 2 µM [%]
CC(C(O)c1ccc(O)cc1)N1CCC(Cc2ccccc2)CC1 (stereo not drawn) [IFENPRODIL] | 97
O=C(/C=C/c1ccc(O)cc1)NCCc1cn(Cc2cccc(Br)c2)c2ccccc12 | 97.5

System: not listed separately
Experiment: AUC (0 to infinity) in C57 mouse at 1 mg/kg, iv measured for 20 mins by LC-MS/MS analysis
Assay type: ADME, organism-based
Parameters: dose 1 mg/kg, time 20 min, route iv
Settings: in vivo

Compound | AUC(0-inf) [µg·h/mL]
O=C(/C=C/c1ccc(O)cc1)NCCc1cn(Cc2cccc(Br)c2)c2ccccc12 | 0.863

System: not listed separately
Experiment: Metabolic stability in human plasma assessed as compound remaining at 2 uM measured immediately by LC-MS/MS analysis
Assay type: ADME, cell-free
Settings: read-out: Stability

Compound | remaining at 0 min, 2 µM [%]
CC(C(O)c1ccc(O)cc1)N1CCC(Cc2ccccc2)CC1 (stereo not drawn) [IFENPRODIL] | 100
O=C(/C=C/c1ccc(O)cc1)NCCc1cn(Cc2cccc(Br)c2)c2ccccc12 | 100

System: not listed separately
Experiment: Metabolic stability in human plasma assessed as compound remaining at 2 uM measured after 60 mins by LC-MS/MS analysis
Assay type: ADME, cell-free
Settings: read-out: Stability

Compound | remaining at 1 h, 2 µM [%]
CC(C(O)c1ccc(O)cc1)N1CCC(Cc2ccccc2)CC1 (stereo not drawn) [IFENPRODIL] | 93.5
O=C(/C=C/c1ccc(O)cc1)NCCc1cn(Cc2cccc(Br)c2)c2ccccc12 | 100

System: not listed separately
Experiment: Oral bioavailability in C57 mouse at 10 mg/kg measured for 20 mins by LC-MS/MS analysis
Assay type: ADME, organism-based
Settings: in vivo

Compound | bioavailability [%]
O=C(/C=C/c1ccc(O)cc1)NCCc1cn(Cc2cccc(Br)c2)c2ccccc12 | 3.12

System: not listed separately
Experiment: Tmax in C57 mouse at 1 mg/kg, iv measured for 20 mins by LC-MS/MS analysis
Assay type: ADME, organism-based
Settings: in vivo

Compound | Tmax [min]
O=C(/C=C/c1ccc(O)cc1)NCCc1cn(Cc2cccc(Br)c2)c2ccccc12 | 4.98

System: not listed separately
Experiment: AUC (0 to t) in C57 mouse at 10 mg/kg, po measured for 20 mins by LC-MS/MS analysis
Assay type: ADME, organism-based
Parameters: time 20 min, dose 10 mg/kg, route po
Settings: in vivo

Compound | AUC(0-t) at 20 min [µg·h/mL]
O=C(/C=C/c1ccc(O)cc1)NCCc1cn(Cc2cccc(Br)c2)c2ccccc12 | 0.261

System: not listed separately
Experiment: MRT (0 to infinity) in C57 mouse at 1 mg/kg, iv measured for 20 mins by LC-MS/MS analysis
Assay type: ADME, organism-based
Settings: in vivo

Compound | MRT inf [min]
O=C(/C=C/c1ccc(O)cc1)NCCc1cn(Cc2cccc(Br)c2)c2ccccc12 | 27

System: Mus musculus
Experiment: Neuroprotective activity against ICV-ET1-induced cerebral ischemia injury C57BL/6J mouse model assessed as improvement in swimming distance at 20 to 80 mg/kg, po administered daily measured on day 14 to 19 by Morris water maze test
Assay type: functional, organism-based
Settings: dose 20-80 mg/kg, time 14-19 day

Compound | Activity
O=C(/C=C/c1ccc(O)cc1)NCCc1cn(Cc2cccc(Br)c2)c2ccccc12 | Active

System: not listed separately
Experiment: Tmax in C57 mouse at 10 mg/kg, po measured for 20 mins by LC-MS/MS analysis
Assay type: ADME, organism-based
Settings: in vivo

Compound | Tmax [min]
O=C(/C=C/c1ccc(O)cc1)NCCc1cn(Cc2cccc(Br)c2)c2ccccc12 | 30

System: Mus musculus
Experiment: Neuroprotective activity against ICV-ET1-induced cerebral ischemia injury C57BL/6J mouse model assessed as improvement of spontaneous alternation behavior administered orally daily for 10 days by Y-maze test
Assay type: functional, organism-based
Settings: dose 20-80 mg/kg, route po, time 10.0 day

Compound | Activity
O=C(/C=C/c1ccc(O)cc1)NCCc1cn(Cc2cccc(Br)c2)c2ccccc12 | Dose-Dependent Effect

System: not listed separately
Experiment: Half life in C57 mouse at 1 mg/kg, iv measured for 20 mins by LC-MS/MS analysis
Assay type: ADME, organism-based
Settings: in vivo

Compound | half-life [min]
O=C(/C=C/c1ccc(O)cc1)NCCc1cn(Cc2cccc(Br)c2)c2ccccc12 | 40.2

System: not listed separately
Experiment: Metabolic stability in human plasma assessed as compound remaining at 2 uM measured after 120 mins by LC-MS/MS analysis
Assay type: ADME, cell-free
Settings: read-out: Stability

Compound | remaining at 2 h, 2 µM [%]
CC(C(O)c1ccc(O)cc1)N1CCC(Cc2ccccc2)CC1 (stereo not drawn) [IFENPRODIL] | 91.3
O=C(/C=C/c1ccc(O)cc1)NCCc1cn(Cc2cccc(Br)c2)c2ccccc12 | 100

System: not listed separately
Experiment: Half life in C57 mouse at 10 mg/kg, po measured for 20 mins by LC-MS/MS analysis
Assay type: ADME, organism-based
Settings: in vivo

Compound | half-life [min]
O=C(/C=C/c1ccc(O)cc1)NCCc1cn(Cc2cccc(Br)c2)c2ccccc12 | 66.6

System: SH-SY5Y
Experiment: Neuroprotective activity against NMDA-induced cell injury in human SH-SY5Y cells assessed as cell viability at 0.5 uM incubated for 6 hrs followed by NMDA treatment for 0.5 hrs and subsequent replacement of fresh medium without compounds by MTT assay relative to control
Assay type: functional
Settings: time 6.5 hrs, read-out: Activity

Compound | viability at 0.5 µM [%]
O=C(/C=C/c1ccc(O)cc1)NCCc1cn(CCCc2ccccc2)c2ccccc12 | 19.3
O=C(/C=C/c1ccccc1)NCCc1cn(Cc2ccccc2)c2ccccc12 | 8.4
O=C(/C=C/c1ccc(O)cc1)NCCc1cn(CCc2ccccc2)c2ccccc12 | 10.1
O=C(/C=C/c1ccc(O)c(O)c1)NCCc1cn(Cc2ccccc2)c2ccccc12 | 47.1
CC(C(O)c1ccc(O)cc1)N1CCC(Cc2ccccc2)CC1 (stereo not drawn) [IFENPRODIL] | 40.4
O=C(/C=C/c1ccc(O)cc1)NCCc1cn(Cc2cccc(Br)c2)c2ccccc12 | 48.8

System: SH-SY5Y
Experiment: Neuroprotective activity against NMDA-induced cell injury in human SH-SY5Y cells assessed as cell viability at 0.05 uM incubated for 6 hrs followed by NMDA treatment for 0.5 hrs and subsequent replacement of fresh medium without compounds by MTT assay relative to control
Assay type: functional
Settings: time 6.5 hrs, read-out: Activity

Compound | viability at 0.05 µM [%]
O=C(/C=C/c1ccc(O)cc1)NCCc1cn(CCCc2ccccc2)c2ccccc12 | 20.1
O=C(/C=C/c1ccccc1)NCCc1cn(Cc2ccccc2)c2ccccc12 | 30.4
O=C(/C=C/c1ccc(O)cc1)NCCc1cn(CCc2ccccc2)c2ccccc12 | 25.9
O=C(/C=C/c1ccc(O)c(O)c1)NCCc1cn(Cc2ccccc2)c2ccccc12 | 34.8
CC(C(O)c1ccc(O)cc1)N1CCC(Cc2ccccc2)CC1 (stereo not drawn) [IFENPRODIL] | 29.4
O=C(/C=C/c1ccc(O)cc1)NCCc1cn(Cc2cccc(Br)c2)c2ccccc12 | 35.7

System: not listed separately
Experiment: MRT (0 to t) in C57 mouse at 10 mg/kg, po measured for 20 mins by LC-MS/MS analysis
Assay type: ADME, organism-based
Settings: in vivo

Compound | MRT last at 20 min [min]
O=C(/C=C/c1ccc(O)cc1)NCCc1cn(Cc2cccc(Br)c2)c2ccccc12 | 74.4

System: Mus musculus
Experiment: Neuroprotective activity against ICV-ET1-induced cerebral ischemia injury C57BL/6J mouse model assessed as improvement in escape latency at 20 to 80 mg/kg, po administered daily measured on day 14 to 19 by Morris water maze test
Assay type: functional, organism-based
Settings: dose 20-80 mg/kg, time 14-19 day

Compound | Activity
O=C(/C=C/c1ccc(O)cc1)NCCc1cn(Cc2cccc(Br)c2)c2ccccc12 | Active
